This is an account of results in PubChem BioAssay (NCI).

What all share (assay): NCI anticancer screen, dose series, 48 h
Test [1] has as its system MCF7 breast.
In test [2] the test system is M14 melanoma.
The subject of test [3] is HOP-62 NSCLC.
Test [4] relates to PC-3 prostate.
For test [5], the system named is KM12 colon.
Test [6] relates to BT-549 breast.
Test [7] concerns CAKI-1 renal.
The subject of test [8] is 786-0 renal.
The subject of test [9] is SW-620 colon.
Test [10] has as its system T-47D breast.

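These data come from cells grown in 96-well plates and exposed to compound for 48 hours at five concentrations. The concentration for 50% growth inhibition is given as GI50. The concentration for full growth arrest is given as TGI.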

As for `Cc1ccc(-n2c3c(c4c(CN5CCOCC5)c(O)ccc42)CCc2ccccc2C3=O)cc1`, the GI50 in test [1] is above 100 µM; in test [2], above 100 µM; in test [3], above 100 µM; in test [4], 42.4 µM; in [5], above 100 µM; in test [6], 33.8 µM. The GI50 in test [7] is 94.1 µM; in test [8], 91.5 µM; in [9], above 100 µM; in test [10] it was above 100 µM. The TGI in test [1], in [2], in test [3], in [4], in test [5] and in test [6] was above 100 µM throughout. Besides, the TGI in test [7], in test [8], in test [9] and in test [10] was above 100 µM each time.

Regarding `COc1ccc2[nH]c(-c3ccccc3)cc2c1`, the GI50 in test [1] is 86.6 µM; in test [2], above 100 µM; in [3], above 100 µM; in [4] it was above 100 µM; in test [5], 73.8 µM; in test [6], above 100 µM. In addition, the GI50 in test [7] was above 100 µM; in test [8] it was above 100 µM; in test [9] it was above 100 µM; in test [10] it was 19.3 µM. Besides, the TGI in [1], in test [2], in test [3], in test [4], in test [5] and in test [6] was above 100 µM throughout. For the same compound, the TGI in [7], in test [8], in [9] and in test [10] was above 100 µM throughout.

`O=c1oc2ccc(F)cc2c(=O)n1-c1ccc(Br)cc1F`: the GI50 in test [1] was 2.04 µM; in [2] it was 0.434 µM; in test [3], 1.64 µM; in test [4] it was 1.52 µM; in test [5], 2.23 µM; in test [6] it was 0.411 µM. Besides, the GI50 in test [7] was 0.393 µM; in test [8] it was 2.79 µM; in [9] it was 1.11 µM; in [10] it was 0.651 µM. The TGI in test [1] was above 29.5 µM; in test [2] it was 5.08 µM; in test [3] it was 7.25 µM; in test [4], 7.42 µM; in [5] it was 6.16 µM; in test [6], 2.19 µM. In addition, the TGI in [7] amounted to 3.69 µM; in test [8], 9.42 µM; in test [9], 25.5 µM; in [10], 7.61 µM.

For the compound `CC[C@@]1(O)C(=O)OCc2c1cc1n(c2=O)Cc2cc3c(N)cccc3nc2-1`, the GI50 in test [1] was 0.00482 µM; in test [2], 0.0042 µM; in test [3], 0.00637 µM; in test [5], 0.0151 µM; in test [6], 0.0394 µM; in [7], 0.00849 µM. In addition, the GI50 in test [8] is 0.0048 µM; in test [10], 0.00662 µM. For the same compound, the TGI in test [1] was 4.85 µM; in test [2], 0.292 µM; in test [3], 0.0489 µM; in test [4], above 100 µM; in [5] it was 11.6 µM; in test [6], 5.26 µM. Besides, the TGI in test [7] came to 0.858 µM; in test [8], 0.0457 µM; in test [9] it was 16.3 µM.

As to `CN(C)C/C=C/C(=O)Nc1ccc(C(=O)N2CCC[C@@H](Nc3ncc(Cl)c(-c4c[nH]c5ccccc45)n3)C2)cc1`, the GI50 in test [1] is 0.0427 µM; in [2], 0.359 µM; in test [3], 0.432 µM; in test [4] it was 0.308 µM; in [5] it was 0.371 µM; in test [6], 0.267 µM. The GI50 was 1.65 µM in test [7], 1.96 µM in [8], 0.191 µM in test [9] and 0.0427 µM in test [10]. Moreover, the TGI in test [1] was 7.16 µM; in test [2], 2.16 µM; in [3], 5.74 µM; in test [4], 3.48 µM; in [5], 12.1 µM; in test [6], 1.22 µM. The TGI in test [7] was 12.1 µM; in [8] it was 8.38 µM; in test [9], 5.74 µM; in test [10], 4.27 µM.

As to `C=CC(=O)Nc1cccc(Nc2nc(Nc3ccc(OCCOC(F)F)cc3)ncc2F)c1`, the GI50 in [1] is 3 µM; in [2] it was 2.54 µM; in [3] it was 2.38 µM; in test [4], 4.01 µM; in test [5] it was 3.57 µM; in test [6] it was 1.36 µM. Besides, the GI50 in test [7] is 1.28 µM; in test [8] it was 1.32 µM; in test [9], 3.27 µM; in [10], 1.83 µM. Besides, the TGI was 41.2 µM in [1]; 18.8 µM in test [2]; 17.2 µM in test [3]; 27.1 µM in test [4]; 17.2 µM in test [5]; 11.6 µM in [6]. Moreover, the TGI in test [7] was 10.1 µM; in test [8], 12.1 µM; in [9], above 100 µM; in [10], 9.98 µM.

In the case of `O=C(O)C1C2C=CC(O2)C1C(=O)Nc1ncccn1` (configuration not stated), the TGI in test [1], in test [2], in [3], in [4], in test [5] and in [6] was above 100 µM in each case. Further, the TGI in test [7], in [8], in [9] and in test [10] was above 100 µM throughout.

`C[C@@H]1C/C=C\C(=O)O[C@H](/C=C/C#C/C=C/C(C)(C)[C@@H](O)c2cccc(O)c2Br)[C@@H](C)/C=C/[C@H](C)C[C@H](OC(N)=O)C1`: the GI50 in test [1] is 0.0613 µM; in test [2] it was 0.0236 µM; in test [3], 0.633 µM; in test [4], 0.045 µM; in test [5] it was 0.0252 µM; in [6], 0.0308 µM. In addition, the GI50 was 0.0462 µM in test [7], 0.0361 µM in [8], 0.0348 µM in [9] and 0.0354 µM in [10]. Also, the TGI is 15.5 µM in test [1]; 0.0639 µM in test [2]; 21.4 µM in test [3]; 17.4 µM in [4]; 16.2 µM in test [5]; 18.2 µM in test [6]. Besides, the TGI in [7] stood at 13.8 µM; in test [8], 15.2 µM; in [9], 15.8 µM; in test [10] it was 22.9 µM.
